Assay results from patent US4324728A, “Compound nanaomycin A and derivatives thereof and a process for producing the same” (The Kitasato Institute, priority 1976, dated 1982).
Converted amounts (≈) assume the structure as drawn. Read-outs that look alike come from different tables or passages of the source.

Tests used:
Format in all cases: cell-based
[1] = test system: Trichophyton ferrugineum; test: Minimal inhibitory concentration (agar); settings: pH 6.4, 4 days, 27° C.
[2] = test system: Trichophyton roseum; test: Minimal inhibitory concentration (agar); settings: pH 6.4, 4 days, 27° C.
[3] = test system: Acholeplasma laidlawii (A); test: Antimycoplasma activity, inhibition zone; settings: Hokken PPLO agar, pH 7.8, 8 days, 37° C.
Experimental: H Hokken PPLO agar (pH 7.8, 8 days, 37° C.)
(§1) Nanaomycin A and derivatives thereof according to the present invention are assayed in a similar manner to that designated as the paper disc method by Itoh, et al [J. of Antibiotics, 24, 855-859 (1971)], for example, as follows: […]

[4] = test system: Mycobacterium smegmatis ATCC 607; test: Minimal inhibitory concentration (agar); settings: Mycolicibacterium smegmatis, ATCC607, 48 h; nutrient agar, pH 7.0, 2 days, 37° C.
[5] = test system: Mycoplasma gallisepticum KP-13; test: Antimycoplasma activity, inhibition zone; settings: Eiken PPLO agar, pH 7.8, 8 days, 37° C.
Experimental: E Eiken PPLO agar (pH 7.8, 8 days, 37° C.)
as §1

[6] = test system: Salmonella typhimurium; test: Minimal inhibitory concentration (agar); settings: Salmonella enterica, 48 h, pH 7.0, 2 days, 37° C.
[7] = test system: Bacillus subtilis PCI 219; test: Minimal inhibitory concentration (agar); settings: pH 7.0, 2 days, 37° C.
Experimental: (§2) Medium N nutrient agar (pH 7.0, 2 days, 37° C.)
(§3) MIC Minimal inhibitory concentration
(§4) N nutrient agar (pH 7.0, 2 days, 37° C.)

[8] = test system: Sarcina lutea PCI 1001; test: Minimal inhibitory concentration (agar); settings: pH 7.0, 2 days, 37° C.
Experimental: as §2, §3, §4

[9] = test system: Staphylococcus aureus FDA 209P (JC-1); test: Minimal inhibitory concentration (agar); settings: FDA209P, 48 h, nutrient agar, pH 7.0, 2 days, 37° C.
Experimental: as §2, §3, §4

[10] = test system: Saccharomyces sake; test: Minimal inhibitory concentration (agar); settings: Saccharomyces, 96 h, pH 6.4, 4 days, 27° C., read-out: MIC
[11] = test system: Trichophyton interdigitale; test: Minimal inhibitory concentration (agar); settings: Trichophyton interdigitale, 96 h; potato agar, pH 6.4, 4 days, 27° C.; read-out: MIC
[12] = test system: Microsporum gypseum 704; test: Minimal inhibitory concentration (agar); settings: Nannizzia gypsea, 704, 96 h; potato agar, pH 6.4, 4 days, 27° C.
[13] = test system: Aspergillus niger ATCC 6275; test: Minimal inhibitory concentration (agar); settings: ATCC6275, 96 h, pH 6.4, 4 days, 27° C.
[14] = test system: Shigella sonnei E 33; test: Minimal inhibitory concentration (agar); settings: E33, 48 h, nutrient agar, pH 7.0, 2 days, 37° C.
Experimental: as §4

[15] = test system: Aerobacter aerogenes IAM 1183; test: Minimal inhibitory concentration (agar); settings: Klebsiella aerogenes, IAM1183, 48 h; nutrient agar, pH 7.0, 2 days, 37° C.
Experimental: as §4

[16] = test system: Bacillus cereus T; test: Minimal inhibitory concentration (agar); settings: 48 h, nutrient agar, pH 7.0, 2 days, 37° C.
Experimental: as §4

[17] = test system: Corynebacterium paurometabolum; test: Minimal inhibitory concentration (agar); settings: Tsukamurella paurometabola, 48 h; nutrient agar, pH 7.0, 2 days, 37° C.
Experimental: as §4

[18] = test system: Staphylococcus aureus KB 64 (R-TC, EM); test: Minimal inhibitory concentration (agar); settings: 48 h, nutrient agar, pH 7.0, 2 days, 37° C., tetracyclin, erythromycin resistant strain, read-out: MIC
Experimental: as §4

[19] = test system: Staphylococcus aureus FS 1227 (PC-R); test: Minimal inhibitory concentration (agar); settings: 48 h, nutrient agar, pH 7.0, 2 days, 37° C., penicillin resistant strain
Experimental: as §4

[20] = test system: Pseudomonas aeruginosa P-3; test: Minimal inhibitory concentration (agar); settings: P3, 48 h, nutrient agar, pH 7.0, 2 days, 37° C.
Experimental: as §4

[21] = test system: Proteus vulgaris IFO 3167; test: Minimal inhibitory concentration (agar); settings: IFO3167, 48 h, nutrient agar, pH 7.0, 2 days, 37° C.
Experimental: as §4

[22] = test system: Proteus mirabilis; test: Minimal inhibitory concentration (agar); settings: 48 h, nutrient agar, pH 7.0, 2 days, 37° C.
Experimental: as §4

[23] = test system: Staphylococcus aureus KB 61 (R-TC, EM); test: Minimal inhibitory concentration (agar); settings: 48 h, nutrient agar, pH 7.0, 2 days, 37° C., tetracyclin, erythromycin resistant strain, read-out: MIC
Experimental: as §4

[24] = test system: Trichophyton asteroides; test: Minimal inhibitory concentration (agar); settings: pH 6.4, 4 days, 27° C.
[25] = test system: Gram-positive bacteria; test: Antibacterial activity (in words)
[26] = test system: Trichophyton rubrum; test: Minimal inhibitory concentration (agar); settings: pH 6.4, 4 days, 27° C.
Experimental: (§5) P potato agar (pH 6.4, 4 days, 27° C.)
as §3
(§6) Minimal inhibitory concentration was assayed by agar dilution method
(§7) (potato agar, pH 6.4, 27° C., 4 days).

[27] = test system: Candida albicans; test: Minimal inhibitory concentration (agar); settings: pH 6.4, 4 days, 27° C.
Experimental: as §5, §3, §6, §7

[28] = test system: Trichophyton schoenleini; test: Minimal inhibitory concentration (agar); settings: pH 6.4, 4 days, 27° C.
Experimental: as §5, §3, §6, §7

[29] = test system: Aspergillus fumigatus IAM 2162; test: Minimal inhibitory concentration (agar); settings: IAM2162, 96 h, potato agar, pH 6.4, 4 days, 27° C.
Experimental: | P potato agar (pH 6.4, 4 days, 27° C.)

[30] = test system: mycoplasmas; test: Antimycoplasma activity (in words)
[31] = Microsporum ferrugineum, 96 h, pH 6.4, potato agar, read-out: MIC
[32] = Trichophyton, 96 h, pH 6.4, potato agar, read-out: MIC
[33] = Bacillus subtilis, PCI219, 48 h, pH 7, nutrient agar, read-out: MIC
[34] = Micrococcus luteus, PCI1001, 48 h, pH 7, nutrient agar, read-out: MIC
[35] = Trichophyton rubrum, 96 h, pH 6.4, potato agar, read-out: MIC
[36] = Candida albicans, 96 h, pH 6.4, potato agar, read-out: MIC

In the case of `CC(=O)Oc1cccc2c1C(=O)C1=C(CC(CC(=O)O)OC1C)C2=O` (centres unmarked) [Acetylnanaomycin A, acetylnanaomycin A], the MIC [1, 31] is reported as 0.8 µg/mL (≈ 2.32 µM), the MIC [2, 32] is reported as 0.4 µg/mL (≈ 1.16 µM) and the “Inhibition Zone” value [3] is reported as “none”. For the same compound, the MIC [4] was 50 µg/mL (≈ 145 µM), the “Inhibition Zone” value [5] was 28.5 mm and the MIC ([6]; nutrient agar) was 50 µg/mL (≈ 145 µM). For the same compound, the MIC [7, 33] was 3.1 µg/mL (≈ 9 µM), the MIC [8, 34] was 1.6 µg/mL (≈ 4.65 µM) and the MIC [9] was 0.8 µg/mL (≈ 2.32 µM). It also gave an MIC ([10]; pH 6.4, potato agar) of 12.5 µg/mL (≈ 36.3 µM), an MIC [11] of 1.6 µg/mL (≈ 4.65 µM) and an MIC [12] of 0.4 µg/mL (≈ 1.16 µM). For the same compound, the MIC ([13]; potato agar, read-out: MIC) was 25 µg/mL (≈ 72.6 µM), the MIC [14] was 100 µg/mL (≈ 290 µM) and the MIC [15] was > 100 µg/mL. The MIC [16] was 25 µg/mL (≈ 72.6 µM), the MIC [17] was 6.3 µg/mL (≈ 18.3 µM) and the MIC [18] was 0.4 µg/mL (≈ 1.16 µM). For the same compound, the MIC [19] was 0.8 µg/mL (≈ 2.32 µM), the MIC [20] was > 100 µg/mL and the MIC [21] was 50 µg/mL (≈ 145 µM). For the same compound, the MIC [22] was > 100 µg/mL, the MIC [23] was 0.8 µg/mL (≈ 2.32 µM) and the MIC [24, 32] was 0.8 µg/mL (≈ 2.32 µM). For the same compound, the “activity against Gram-positive bacteria” value [25] was “a strong activity against Gram-positive bacteria than nanaomycin A”, the MIC [26, 35] was < 0.2 µg/mL and the MIC [27, 36] was 25 µg/mL (≈ 72.6 µM). For the same compound, the MIC [28, 32] was < 0.2 µg/mL, the MIC [29] was 6.3 µg/mL (≈ 18.3 µM) and the “activity against mycoplasma(s)” value [30] was “as strong activity against fungi and mycoplasmas as nanaomycin A”.
`CC1OC(CC(=O)O)CC2=C1C(=O)c1c(O)cccc1C2=O` (centres unmarked) [Nanaomycin A, nanaomycin A] was tested, and the MIC [1, 31] was 0.8 µg/mL (≈ 2.65 µM), the MIC ([1]; potato agar) was 1.6 µg/mL (≈ 5.29 µM) and the MIC [2, 32] was < 0.2 µg/mL. For the same compound, the MIC ([2]; potato agar) was 0.4 µg/mL (≈ 1.32 µM), the “Inhibition Zone” value [3] was “none” and the MIC [4] was 100 µg/mL (≈ 331 µM). The “Inhibition Zone” value [5] was 28.7 mm, the MIC ([6]; nutrient agar) was 100 µg/mL (≈ 331 µM) and the MIC ([6]; pH 7, nutrient agar) was 62.5 µg/mL (≈ 207 µM). The MIC [7, 33] was 6.3 µg/mL (≈ 20.8 µM), the MIC ([7]; nutrient agar) was 7.8 µg/mL (≈ 25.8 µM) and the MIC [8, 34] was 1.6 µg/mL (≈ 5.29 µM). It also gave an MIC ([8]; nutrient agar) of 2.0 µg/mL (≈ 6.62 µM), an MIC [9] of 2 µg/mL (≈ 6.62 µM) and an MIC ([10]; pH 6.4, potato agar) of 12.5 µg/mL (≈ 41.4 µM). It also gave an MIC ([10]; potato agar) of 31.2 µg/mL (≈ 103 µM), an MIC [11] of 1.6 µg/mL (≈ 5.29 µM) and an MIC [12] of 0.8 µg/mL (≈ 2.65 µM). It also gave an MIC ([13]; pH 6.4, potato agar) of 62.5 µg/mL (≈ 207 µM), an MIC ([13]; potato agar, read-out: MIC) of 25 µg/mL (≈ 82.7 µM) and an MIC [14] of 100 µg/mL (≈ 331 µM). The MIC [15] was > 100 µg/mL, the MIC [16] was 12.5 µg/mL (≈ 41.4 µM) and the MIC [17] was 12.5 µg/mL (≈ 41.4 µM). The MIC [18] was 0.8 µg/mL (≈ 2.65 µM), the MIC [19] was 1.6 µg/mL (≈ 5.29 µM) and the MIC [20] was > 100 µg/mL. For the same compound, the MIC [21] was 50 µg/mL (≈ 165 µM), the MIC [22] was > 100 µg/mL and the MIC [23] was 1.6 µg/mL (≈ 5.29 µM). The MIC [24, 32] was 0.8 µg/mL (≈ 2.65 µM), the MIC ([24]; potato agar) was 1.6 µg/mL (≈ 5.29 µM) and the “activity against Gram-positive bacteria” value [25] was “strong activity”. For the same compound, the MIC [26, 35] was < 0.2 µg/mL, the MIC ([26]; potato agar) was < 0.1 µg/mL and the MIC [27, 36] was 50 µg/mL (≈ 165 µM). For the same compound, the MIC ([27]; potato agar) was 31.2 µg/mL (≈ 103 µM), the MIC [28, 32] was < 0.2 µg/mL and the MIC ([28]; potato agar) was 0.2 µg/mL (≈ 0.662 µM). For the same compound, the MIC [29] was 6.3 µg/mL (≈ 20.8 µM) and the “activity against mycoplasma(s)” value [30] was “high activity”.
